Measured values: US8470352B2, “Magnesium compositions and uses thereof for metabolic disorders” (Magceutics, Inc., priority 2007, dated 2013)

Key:
[1] = system: diabetic patients; details: nearly 1 g of magnesium daily for 1 month; cited from earlier work
[2] = system: young (9-month old) and aged (25-month old) rats; details: food containing 2% magnesium oxide for 8 days; gain transient; cited from earlier work
[3] = in vivo; cited from earlier work
[4] = system: mice genetically altered to present symptoms of Alzheimer's disease (AD); assay: Modified Morris water maze test in AD mice; format: in vivo; details: AD mice aged 13 months; FIG. 16 panels A and B
Method: Another group, the control group, of 10 mice that were genetically altered to present symptoms of AD were fed a Control Diet, a diet of normal solid food and water, for 30 days.
The pool used was a pool of water in a circular metal tank (150 cm in diameter and 50 cm in depth) having a water height of 30 cm and a water temperature that was maintained at ˜22° C. The pool was placed in a moderately lit area and surrounded by a black curtain. An acrylic platform (15 cm in diameter) was placed 2 cm below the surface of the water in the middle of one quadrant of the pool, equidistant from the center and the edge of the pool. Outside the pool, a cue was placed so as to be visible to a mouse in the maze, allowing a mouse to use it as a landmark for spatial orientation. The cue remained unchanged throughout the test period.
On the first day of the training and testing period, the water in the pool was transparent, such that the platform was visible. Each mouse was trained to swim towards the platform and to stand on the platform so as not to be submerged in the pool. […] The amount of time the mouse took to find the platform, referred to as “escape latency,” was recorded for each trial.
On the second day of the training and testing period, a small quantity of milk was added to the water in the pool, such that the pool was opaque and the platform was no longer visible. […]

[5] = Magnesium absorption rate in rats (urine and feces magnesium by ICP-AES, linear regression); details: Examples 5 and 6, gluconate in skim milk or 5 weight percent lactose water, chloride and threonate in water; for magnesium absorption rate at higher dosage: high magnesium dosage
Method: Fifty 3-month old, male Sprague Dawley (SD) rats were divided into five groups of ten rats. Rats of this age and older are considered adult. Each of the rats was placed in a separate metabolic cage equipped with urine- and feces-collecting wells. All of the rats were maintained in a temperature-controlled room (22° C. to 25° C.) with a dark period from 08:00 pm to 08:00 am daily. From day 1 through day 3, each rat was fed daily 15 g of magnesium-free food and de-ionized water. […] The medium was skim milk for Composition 1 and Group 1, milk prepared from powdered milk, by diluting the powdered milk with water to obtain a composition like that of skim milk, for Composition 2 and Group 2, 1% milk cream in water for Composition 3 and Group 3, water comprising 5 weight percent lactose for Composition 4 and Group 4, and water for the Control Composition and Control Group. […] From day 11 through day 12, each rat was fed daily 15 g of magnesium-free food and de-ionized water.
From day 4 through day 10, urine from each rat was collected daily. The collected urine from each rat was then pooled together and the total volume of the pooled urine from each rat was recorded. The pooled urine from each rat, in an amount of […], was analyzed for magnesium content using an inductively coupled plasma-atomic emission spectrometer (ICP-AES). From day 5 to day 11, feces from each rat were collected daily. The collected feces from each rat were pooled together and the pooled feces were weighed and homogenized. The pooled feces from each rat, in an amount of 0.5 g, were analyzed for magnesium content using an ICP-AES.
A formula was used to calculate a magnesium absorption rate for each rat. The formula used was Y=AX−B, wherein X was the average total daily magnesium intake, Y was the average net daily amount of magnesium absorbed, as calculated by X minus the average daily amount of magnesium excreted from feces, B was the average daily amount of magnesium excreted from feces when the magnesium intake was zero, and the slope A represented the magnesium absorption rate. […]

[6] = system: rats (young, aging, aged); details: p<0.05
Method: Twenty 2-month old, male Sprague Dawley (SD) rats were housed in a temperature-controlled room (22° C. to 25° C.) with a dark period from 08:00 pm to 08:00 am daily. […] Over 7 days before the training and trial period began, each rat was handled and habituated to the maze and to Kellogg's Froot Loop cereal.
Each rat underwent a test of one trial, followed by an interval of 10-minutes, followed by another trial, and so on, for a total of 6 trials in one day. In each trial, each rat went through a sample run in the maze, followed by an interval of 15 seconds, followed by a choice run in the maze. […]
On the first day (designated day 0) of the feeding of the two groups, as just described, each rat underwent a preliminary test of one trial, followed by an interval of 10 minutes, followed by another trial, and so on, for a total of 4 trials in one day. […] In this preliminary test, the choice accuracy level, or ratio of correct choices made, co, to the number of number of trials in the test, no, was determined for each rat. […]
Three groups of animals (young, aging, and magnesium-treated aging rats) were used. […] Spatial working memory was assessed using a T-maze non-matching-to-place task. […] Spatial working memory was first assessed on an elevated T-maze. […]

[7] = system: rats (young, aging); assay: Novel object recognition test in rats; format: in vivo, Sprague-Dawley rats
Method: In this example, the effect of magnesium supplementation on recognition memory was tested. Three groups of rats were used in these experiments: 1) young rats (three months old); aging rats (12-14 months old), and; 3) magnesium-treated aging rats (12-14 months old, diet supplemented with 6 mg/kg MgCl2 from 8 months of age). We used experimentally naive, female, Sprague-Dawley young […], aging (12-14 month old) and […] rats (Charles River) at the beginning of the behavior experiments. They were housed two per cage with continuous access to food and water under a 12:12 light-dark cycle, with light onset at 8:00 a.m. […] All experiments involving animals were approved by the Massachusetts Institute of Technology's and Tsinghua University Committees on Animal Care.
The three groups of rats were tested for recognition memory using an object recognition test with a single exposure to the object during training. The task is based on the natural tendency of rodents to explore new objects and tests the animals' memory capacity for distinguishing novel versus familiar objects.
Briefly, the rats were first individually habituated to the personnel and then to open-field arena during 2 weeks. […] The retention intervals were 10 min and 24 hours. Objects were cleaned thoroughly between trials with 20% ethanol solution to ensure the absence of olfactory cues. The particular objects for a given trial were randomly determined, but each object was used for only one trial per rat. Memory of the familiar object is associated with increased exploration of the new object and an exploration index (% correct) is calculated as new object inspection time/30.
In this example, the effect of magnesium supplementation on memory consolidation was studied. […]
Briefly, the rats were first individually habituated to the personnel and then to open-field arena during 2 weeks. […] The particular objects for a given trial were randomly determined, but each object was used for only one trial per rat. […]

[O]=[Mg] [magnesium oxide]
metabolic control [1]: only minor improvement
cognitive function [2]: some sign of improvement
magnesium bioavailability, or absorption rate in the human body [3]: very low

CC12CC3CC(C)(C1)CC(N)(C3)C2 [memantine]
reduction of the effects of AD on learning capacity, comparison of anti-AD drugs [4]: better at reducing the effects of AD on learning capacity than aricept

[Cl-].[Cl-].[Mg+2] [magnesium chloride]
magnesium absorption rate at higher dosage [5]: less desirable
magnesium absorption rate at relatively low dosage ([5]; low magnesium dosage): suitable, but lower
learning in T-maze non-matching-to-place task, 15 sec delay ([6]; 6 mg/kg MgCl2, FIG. 10 left panel): performed significantly better from their first trials
spatial working memory at 2 and 5 min delays ([6]; 6 mg/kg MgCl2, FIG. 10 right panel): significantly enhanced the performance of the aging rats
novel object exploration preference, 10 minute retention interval ([7]; aging rats (12-14 months old), diet supplemented with 6 mg/kg MgCl2 from 8 months of age, single training, FIG. 8, P<0.0001): preferentially explored the novel object to the same extent as young rats
novel object discrimination after 24 hours ([7]; aging rats, 6 mg/kg MgCl2, single training): lose there ability to distinguish novel versus familiar objects
preference for the novel object, 24-hour retention interval after spaced training ([7]; aging rats, 6 mg/kg MgCl2, two training sessions, FIG. 9): retained a high level of preference

magnesium gluconate
magnesium absorption rate at higher dosage [5]: suitably close to those associated with the lower dosage compositions
